In the supplement of paper PMC10331698:
± gives the standard deviation of the averaged measurements.

Columns and labels:
Assay in all cases: level (log10 ratio to DMSO vehicle control); higher = higher biomarker level / cell amount than vehicle control
Settings in all cases: in DMSO
[1] = compound: FC(F)(F)C(F)(F)C(F)(F)CC1CO1 [1H,1H-Heptafluorobutyl epoxide]
Description: (§1)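 BioMAP Diversity Plus panel of 12 human primary cell co-culture systems (3C, 4H, LPS, SAg, BT, BF4T, BE3C, CASM3C, HDF3CGF, KF3CT, MyoF, Mphg). Compounds were added 1 h before stimulation and left for 24 h (MyoF 48 h; BT 72 h for soluble read-outs or 6 d for IgG). Biomarkers were read by ELISA, cytotoxicity by SRB, PBMC viability and proliferation by Alamar Blue. Each well value was divided by the mean of 8 DMSO control wells on the same plate and log10 transformed; duplicate blinded samples were tested at 4 concentrations.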

Octafluoroadipamide = compound: NC(=O)C(F)(F)C(F)(F)C(F)(F)C(F)(F)C(N)=O [Octafluoroadipamide]
Description: as §1

[2] = compound: O=S(=O)(Cl)C(F)(F)C(F)(F)C(F)(F)C(F)(F)C(F)(F)C(F)(F)C(F)(F)C(F)(F)F [Perfluoro-1-octanesulfonyl chloride]
Description: as §1

[3] = compound: O=S(=O)(O)C(F)(F)C(F)(F)C(F)(F)C(F)(F)C(F)(F)C(F)(F)C(F)(F)C(F)(F)C(F)(F)C(F)(F)F [Sodium perfluorodecanesulfonate]
Description: as §1

[4] = compound: O=S(=O)(O)CCC(F)(F)C(F)(F)C(F)(F)C(F)(F)C(F)(F)C(F)(F)F [6:2 Fluorotelomer sulfonic acid]
Description: as §1

Hexafluoroamylene glycol = compound: OCC(F)(F)C(F)(F)C(F)(F)CO [Hexafluoroamylene glycol]
Description: as §1

Row | Test System | level (log10) ([1]; 6700 nM) | level (log10) ([1]; 20000 nM) | level (log10) ([1]; 60000 nM) | level (log10) (Octafluoroadipamide; 6700 nM) | level (log10) (Octafluoroadipamide; 20000 nM) | level (log10) (Octafluoroadipamide; 60000 nM) | level (log10) ([2]; 6700 nM) | level (log10) ([2]; 20000 nM) | level (log10) ([2]; 60000 nM) | level (log10) ([3]; 1500 nM) | level (log10) ([3]; 4400 nM) | level (log10) ([3]; 13000 nM) | level (log10) ([3]; 40000 nM) | level (log10) ([4]; 6700 nM) | level (log10) ([4]; 20000 nM) | level (log10) ([4]; 60000 nM) | level (log10) (Hexafluoroamylene glycol; 6700 nM) | level (log10) (Hexafluoroamylene glycol; 20000 nM) | level (log10) (Hexafluoroamylene glycol; 60000 nM)
1 | HDF3CGF:M-CSF | -0.017 ± 0.064 | -0.029 ± 0.044 | -0.0245 ± 0.0092 | -0.017 ± 0.054 | -0.0215 ± 0.073 | 0.023 ± 0.0028 | -0.0065 ± 0.016 | 0.0245 ± 0.021 | 0.0195 ± 0.011 | 0.0325 ± 0.0078 | 0.009 ± 0.018 | 0.037 ± 0.035 | 0.0405 ± 0.0035 | -0.0255 ± 0.073 | -0.044 ± 0.068 | -0.082 ± 0.085 | -0.014 ± 0.02 | -0.0235 ± 0.066 | -0.0495 ± 0.077
2 | HDF3CGF:MMP-1 | 0.0265 ± 0.012 | 0.028 ± 0.0099 | 0.0355 ± 0.0035 | 0.0035 ± 0.005 | 0.002 ± 0.011 | 0.0045 ± 0.012 | -0.0435 ± 0.019 | -0.017 ± 0.0099 | 0.016 ± 0.028 | -0.0125 ± 0.0092 | -0.0145 ± 0.0078 | -0.007 ± 0.024 | 0.027 ± 0.024 | -0.015 ± 0.027 | -0.039 ± 0.03 | -0.036 ± 0.064 | 0.004 ± 0.0071 | -0.0015 ± 0.04 | -0.022 ± 0.064
3 | HDF3CGF:PAI-I | -0.0135 ± 0.0035 | -0.0175 ± 0.0064 | 0.009 ± 0.025 | 0.018 ± 0.0099 | 0.018 ± 0.0014 | 0.009 ± 0.0014 | 0.0185 ± 0.0021 | 0.0435 ± 0.0064 | 0.0255 ± 0.032 | 0.0815 ± 0.042 | 0.159 ± 0.0028 | 0.129 ± 0.041 | 0.147 ± 0.038 | 0.005 ± 0.0042 | -0.0015 ± 0.0035 | -0.01 ± 0.011 | 0.0045 ± 0.0035 | 0.006 ± 0.038 | -0.0145 ± 0.0021
4 | HDF3CGF:Proliferation 72hr | -0.0905 ± 0.044 | -0.0925 ± 0.047 | -0.0225 ± 0.13 | -0.041 ± 0.052 | 0.0825 ± 0.05 | -0.0115 ± 0.029 | 0.126 ± 0.04 | 0.155 ± 0.1 | -0.0105 ± 0.0035 | 0.098 ± 0.023 | 0.23 ± 0.037 | 0.316 ± 0.013 | 0.301 ± 0.021 | 0.0015 ± 0.019 | 0.0725 ± 0.03 | 0.0405 ± 0.036 | -0.0185 ± 0.021 | 0.0055 ± 0.025 | -0.008 ± 0.037
5 | HDF3CGF:SRB | -0.0095 ± 0.029 | -0.0105 ± 0.0021 | 0.0375 ± 0.0064 | -0.0135 ± 0.047 | -0.0225 ± 0.066 | -0.0195 ± 0.046 | 0.015 ± 0.021 | -0.0095 ± 0.005 | -0.0345 ± 0.035 | 0.014 ± 0.0099 | -0.0075 ± 0.035 | 0.104 ± 0.0092 | 0.198 | 0.0055 ± 0.044 | 0.0255 ± 0.056 | 0.023 ± 0.085 | 0.0095 ± 0.052 | 0.0215 ± 0.06 | 0.02 ± 0.061
6 | HDF3CGF:TIMP-1 | -0.0015 ± 0.067 | 0.015 ± 0.068 | -0.0025 ± 0.071 | 0.002 ± 0.0071 | 0.0015 ± 0.012 | 0.0035 ± 0.021 | 0.016 ± 0.038 | 0.053 ± 0.0057 | 0.139 ± 0.016 | -0.0355 ± 0.04 | 0.0065 ± 0.0035 | 0.0265 ± 0.042 | 0.156 ± 0.016 | 0.0225 ± 0.08 | -0.0045 ± 0.076 | 0.0175 ± 0.13 | -0.0155 ± 0.05 | -0.0145 ± 0.06 | -0.017 ± 0.1
7 | HDF3CGF:TIMP-2 | -0.0395 ± 0.16 | -0.061 ± 0.11 | -0.038 ± 0.1 | -0.0695 ± 0.13 | -0.035 ± 0.061 | -0.002 ± 0.013 | -0.002 ± 0.048 | -0.0185 ± 0.013 | -0.0205 ± 0.0021 | -0.026 ± 0.11 | 0.0395 ± 0.0035 | 0.005 ± 0.052 | -0.085 ± 0.089 | -0.021 ± 0.0099 | -0.0205 ± 0.032 | 0.0245 ± 0.029 | -0.0205 ± 0.029 | -0.024 ± 0.014 | 0.0025 ± 0.032
8 | KF3CT:CCL2/MCP-1 | -0.031 ± 0.04 | -0.0685 ± 0.023 | -0.026 ± 0.042 | -0.017 ± 0.0085 | -0.026 ± 0.013 | -0.001 ± 0.021 | -0.031 ± 0.025 | -0.0315 ± 0.019 | -0.0485 ± 0.016 | 0.037 ± 0.0099 | -0.0155 ± 0.042 | -0.0485 ± 0.029 | -0.023 ± 0.038 | 0.0125 ± 0.00071 | 0.0035 ± 0.013 | -0.0145 ± 0.043 | 0.0125 ± 0.005 | 0.012 ± 0.0085 | 0.0085 ± 0.021
9 | KF3CT:CD54/ICAM-1 | 0.003 ± 0.013 | -0.012 ± 0.0042 | -0.0105 ± 0.025 | -0.0015 ± 0.0021 | -0.003 | 0.0115 ± 0.022 | -0.0055 ± 0.0021 | -0.008 ± 0.0028 | 0.0325 ± 0.016 | 0.0035 ± 0.013 | 0.018 ± 0.023 | 0.08 ± 0.013 | 0.09 | -0.0095 ± 0.0064 | -0.0265 ± 0.0035 | -0.037 ± 0.0071 | 0.0035 ± 0.021 | -0.0155 ± 0.012 | -0.013 ± 0.0099
10 | KF3CT:CXCL8/IL-8 | -0.021 ± 0.027 | -0.0135 ± 0.03 | 0.0015 ± 0.0035 | -0.005 | -0.0055 ± 0.0021 | 0.0095 ± 0.023 | 0.006 ± 0.0042 | 0.0095 ± 0.016 | 0.0615 ± 0.025 | 0 ± 0.044 | -0.0125 ± 0.0064 | -0.0175 ± 0.012 | -0.0105 ± 0.005 | -0.0005 ± 0.035 | -0.001 ± 0.027 | -0.0455 ± 0.022 | 0.001 ± 0.044 | -0.0015 ± 0.028 | 0.004 ± 0.02
11 | KF3CT:CXCL9/MIG | -0.0095 ± 0.00071 | -0.002 ± 0.025 | -0.0085 ± 0.012 | 0.0075 ± 0.0064 | 0.0035 ± 0.005 | 0.0075 ± 0.005 | -0.0045 ± 0.005 | -0.002 ± 0.0057 | 0.005 ± 0.0042 | 0.0005 ± 0.0064 | -0.0045 ± 0.0021 | 0.0015 ± 0.0092 | 0 ± 0.0042 | 0.0005 ± 0.013 | -0.0025 ± 0.022 | 0.0005 ± 0.013 | 0.0155 ± 0.00071 | -0.003 ± 0.0014 | 0.014 ± 0.011
12 | KF3CT:CXCL10/IP-10 | -0.011 ± 0.027 | -0.012 ± 0.021 | -0.0175 ± 0.016 | -0.002 ± 0.0042 | 0.002 ± 0.0071 | 0.0005 ± 0.005 | -0.0165 ± 0.00071 | -0.0455 ± 0.00071 | -0.16 ± 0.0099 | 0 ± 0.023 | -0.021 ± 0.027 | -0.015 ± 0.025 | -0.0225 ± 0.0078 | -0.0105 ± 0.011 | -0.0055 ± 0.015 | -0.0135 ± 0.00071 | 0.0015 ± 0.015 | -0.008 ± 0.0099 | -0.0035 ± 0.0092
13 | KF3CT:IL-1alpha | -0.009 ± 0.011 | -0.0255 ± 0.015 | 0.0095 ± 0.037 | 0.014 ± 0.0028 | 0 ± 0.037 | 0.017 ± 0.017 | -0.013 ± 0.0085 | -0.03 ± 0.02 | -0.055 ± 0.0014 | 0.0125 ± 0.018 | -0.0295 ± 0.005 | -0.0545 ± 0.0035 | -0.045 ± 0.02 | 0.0115 ± 0.016 | 0.0005 ± 0.016 | -0.0255 ± 0.039 | -0.014 ± 0.031 | -0.018 ± 0.0099 | -0.017 ± 0.038
14 | KF3CT:TIMP-2 | 0.039 ± 0.0042 | -0.006 ± 0.016 | 0.0365 ± 0.06 | -0.0175 ± 0.00071 | -0.0085 ± 0.018 | 0.0265 ± 0.0021 | -0.031 ± 0.0071 | -0.0235 ± 0.018 | -0.017 ± 0.051 | -0.0205 ± 0.056 | -0.015 | 0.044 ± 0.02 | 0.005 ± 0.034 | -0.029 ± 0.0085 | -0.0035 ± 0.012 | 0.0015 ± 0.012 | -0.0095 ± 0.026 | -0.019 ± 0.0085 | -0.007 ± 0.014
15 | LPS:CCL2/MCP-1 | -0.0025 ± 0.005 | -0.017 ± 0.023 | -0.0095 ± 0.0021 | 0.003 ± 0.0042 | 0.0005 ± 0.0035 | 0.018 ± 0.021 | -0.0075 ± 0.0078 | 0.025 ± 0.021 | 0.0205 ± 0.029 | -0.0165 ± 0.011 | -0.041 ± 0.0085 | -0.0235 ± 0.033 | -0.0655 ± 0.077 | 0.0095 ± 0.0021 | 0.037 ± 0.018 | 0.056 ± 0.037 | 0.0055 ± 0.012 | -0.009 ± 0.03 | 0.0135 ± 0.04
